Consider three substances from publication PMC3665846, “Evolution of a Potential Hormone Antagonist following Gene Splicing during Primate Evolution” (PLoS ONE, 2013).

No end group written: not given here.

Assay [1] has as its system various cancer cell lines. The note with it: ref [23]–[27]; cited from earlier work. The procedure:
Because treatment with a CCK antagonist inhibits proliferation of Ewing tumor cells, CCK antagonist could represent a new therapeutic approach in the management of Ewing's tumor patients. To further confirm the potential antagonist function of CCKsv, we checked if CCKsv could inhibit Ewing tumor cell growth stimulated by CCK. Two Ewing tumor cell lines (SK-N-MC and SK-PN-DW) were cultured with the CCK-8 peptide (0.1 uM) in the presence or absenc ...

The subject of assay [2] is release of pancreatic enzymes and the contraction of the gallbladder. As to conditions: ref [10]–[12]; cited from earlier work. From the text:
Alternative splicing allows the generation of various gene products with different functions from a single gene and is a major mechanism of generating protein diversity in eukaryotes [1]–[5]. At least half, or more, of mammalian genes can be alternatively spliced, [2]. Thus, alternative splicing emerges as a major mechanism of generating protein diversity and splicing of coding regions in peptide hormone genes often results in additional protein domains. Calcitonin and calcitonin-related polypeptide represent the classical example of novel hormone evolution from the same gene ...

Assay [3] has as its system CCKA receptor. The experiment in a line: CCKA receptor luciferase reporter assay, agonism. The note with it: CRE-, SRE-, NFAT-, 18 h. It counts as cell-based. As to the method: (§1) HEK293T cells seeded in 24-well plates were co-transfected by various luciferase reporters (30 ng), the pSV-β-Gal plasmid (3 ng), and the CCKA or CCKB receptor (30 ng). After 1 day, cells were treated in serum-free media for another 18 h with increasing doses of the CCK-8 or CCKsv peptide. For the estimation of antagonistic activities, cells were pre-incubated (30 min.) with the CCKsv peptide before treatment with CCK8 for 18 h. Luciferase activities were determined using luciferase assay kits (Promega) and normalized using β-galactosidase activities. All experiments were performed at least three times in triplicates. Data were analyzed using Graphpad Prism 5.0.

Assay [4] relates to CCKB receptor. The experiment in a line: CCKB receptor luciferase reporter assay, agonism. It counts as cell-based. As to conditions: 18 h. As to the method: as §1
The test system of assay [5] is CCKA receptor. Kind of assay: CCKA receptor luciferase reporter assay, antagonism of CCK-8. It counts as cell-based. The note with it: CCKsv 0.1 uM or 1 uM, 30 min pre-incubation. The procedure: as §1
Assay [6] concerns CCKB receptor. The experiment in a line: CCKB receptor luciferase reporter assay, antagonism of CCK-8. It counts as cell-based. The procedure:
as §1

The subject of a further assay is LGR7. Kind of assay: relaxin-stimulated CRE-luciferase activity in LGR7-expressing cells (specificity control). The assay is classed as cell-based. As to conditions: CCKsv 0.1 uM or 1 uM, co-treatment with relaxin, Fig. S6.
A further assay concerns SK-N-MC cells. Kind of assay: Ewing tumor cell growth, SK-N-MC, crystal violet staining. As to conditions: CCK-8 0.1 uM, 6 days; for suppression of CCK-stimulated growth, SK-N-MC: serum-free, CCKsv 30 min pre-treatment, at least 3 independent experiments. The assay is classed as cell-based, human. The procedure:
(§2) SK-N-MC and SK-PN-DW cells (1×10^5) were plated in 12-well plates and allowed to attach for 24–36 h. Cells were then cultured in serum-free media with 0.1 uM of the CCK-8 peptide with or without the CCKsv peptide. Fresh media containing peptides were replaced every two days. […] Cell growth was determined by crystal violet staining.

The test system of the next assay is SK-PN-DW cells. Kind of assay: Ewing tumor cell growth, SK-PN-DW, crystal violet staining. The assay is classed as cell-based. The note with it: CCK-8 0.1 uM, 6 days; for suppression of CCK-stimulated growth, SK-PN-DW: serum-free, CCKsv 30 min pre-treatment, at least 3 independent experiments. The procedure:
as §2

On to Cholecystokinin [CCK], for which, in assay [1], the “cell proliferation in cancer cell lines” value is listed as “induces cell proliferation”. The “release of pancreatic enzymes and gallbladder contraction” value in assay [2] is “induce the release of pancreatic enzymes and the contraction of the gallbladder”.

“GKNAASPSLTSALVPRLPMLTLFSSASLMGMTSL-amidated (GKNAASPSLTSALVPRLPMLTLFSSASLMGMTSL-NH2) [CCKsv, splicing variant of human CCK; predicted mature peptide chemically synthesized, C-terminally amidated]”: the “stimulation of G protein pathways by CCKsv via CCKA (agonism)” value with CCKA receptor [3] (HEK293T + CCKA, SRF-RE-luciferase (Gs, Gi, Gq, G12), Fig. S5) is “not capable of stimulating different G proteins (Gs, Gi, Gq, and G12)”. Also, in the assay with CCKB receptor [4] (HEK293T + CCKB, CRE-, SRE-, NFAT-, SRF-RE-luciferase (Gs, Gi, Gq, G12), Fig. S5), the “stimulation of G protein pathways by CCKsv via CCKB (agonism)” value is “not capable of stimulating different G proteins (Gs, Gi, Gq, and G12)”. Further, the “inhibition of CCK-8-stimulated CRE luciferase activity, CCKA” value with CCKA receptor [5] (Fig. 3A, HEK293T, increasing doses of CCK-8, 18 h) is reported as “inhibited”. The “inhibition of CCK-8-stimulated SRF luciferase activity, CCKA” value with CCKA receptor [5] (Fig. 3B, HEK293T, increasing doses of CCK-8, 18 h) is recorded as “inhibited”. Further, the “suppression of CCK8 actions by CCKsv pretreatment, CCKA” value in the assay with CCKA receptor [5] (HEK293T + CCKA, then CCK-8 (various doses) 18 h, luciferase) is on record as “dose-dependent suppression of CCK8 actions”. Further, in the assay on CCKB receptor [6] (Fig. 3C, HEK293T + CCKB, CRE reporter, 1 uM CCKsv (30 min pre-incubation), CCK-8 30 nM, 18 h), the “suppression of CCK-8-stimulated CRE luciferase activity” value is approximately 60%. The “inhibition of CCK-8-stimulated CRE luciferase activity, CCKB” value with CCKB receptor [6] (Fig. 3C, HEK293T, CCKsv 0.1 uM or 1 uM, 30 min pre-incubation, increasing doses of CCK-8, 18 h) is given as “inhibited”. The “suppression of CCK-8-stimulated SRF luciferase activity” value in the assay on CCKB receptor [6] (Fig. 3D, HEK293T + CCKB, SRF reporter, 1 uM CCKsv (30 min pre-incubation), CCK-8 30 nM, 18 h) is given as approximately 60%. Also, the “inhibition of CCK-8-stimulated SRF luciferase activity, CCKB” value with CCKB receptor [6] (Fig. 3D, HEK293T, CCKsv 0.1 uM or 1 uM, 30 min pre-incubation, increasing doses of CCK-8, 18 h) is listed as “inhibited”. Moreover, the “inhibition of CCK-8-stimulated SRE luciferase activity, CCKB” value with CCKB receptor [6] (Fig. 3E, HEK293T, CCKsv 0.1 uM or 1 uM, 30 min pre-incubation, increasing doses of CCK-8, 18 h) is reported as “inhibited”. Besides, the “suppression of CCK8 actions by CCKsv pretreatment, CCKB” value with CCKB receptor [6] (HEK293T + CCKB, CCKsv 0.1 uM or 1 uM, 30 min pre-incubation, then CCK-8 (various doses) 18 h, luciferase) was “dose-dependent suppression of CCK8 actions”. Besides, in the assay on LGR7, the “effect on luciferase activity stimulated by relaxin” value was “did not alter relaxin signaling”. Moreover, the “suppression of CCK-stimulated growth, SK-N-MC” value in the assay on SK-N-MC cells (0.1 uM CCKsv, Fig. 4A) was found to be 22%; in the assay with SK-N-MC cells (1 uM CCKsv, Fig. 4A) it was 38%. Moreover, in the assay on SK-N-MC cells (CCKsv 0.1 uM or 1 uM), the “effect of CCKsv on CCK-stimulated growth, SK-N-MC” value is listed as “dose-dependently reduced CCK-stimulated growth”. Moreover, the “suppression of CCK-stimulated growth, SK-PN-DW” value with SK-PN-DW cells (0.1 uM CCKsv, Fig. 4B) is 18%; with SK-PN-DW cells (1 uM CCKsv, Fig. 4B), 31%. Also, in the assay with SK-PN-DW cells (CCKsv 0.1 uM or 1 uM), the “effect of CCKsv on CCK-stimulated growth, SK-PN-DW” value is “dose-dependently reduced CCK-stimulated growth”.

For “CCK-8: CCK-8 peptide purchased from Phoenix Pharmaceuticals Inc. [reference compound]”, the “stimulation of luciferase reporters by CCK-8 via CCKA” value in the assay on CCKA receptor [3] (HEK293T cells co-transfected with reporter, pSV-β-Gal and CCKA, serum-free, SRF-RE reporters screened, normalized to β-galactosidase, at least three times in triplicates) is “stimulated CRE- and SRF-RE reporters via CCKA”. Further, the “stimulation of luciferase reporters by CCK-8 via CCKB” value in the assay with CCKB receptor [4] (HEK293T cells co-transfected with reporter, pSV-β-Gal and CCKB, serum-free, CRE-, SRE-, NFAT-, SRF-RE reporters screened, normalized to β-galactosidase, at least three times in triplicates) was “stimulation of CRE-, SRE- and SRF-RE reporters”. Besides, the “responsiveness to CCK-8 of cells with CRE reporter and CCKB receptor” value in the assay with CCKB receptor [4] (HEK293T, CRE-luciferase, CCKB, compared with other reporter/receptor combinations (Fig. 3C)) is on record as “most responsive to CCK-8 peptide stimulation”. Also, the “Ewing tumor cell growth with CCK-8, SK-N-MC” value in the assay with SK-N-MC cells (serum-free media, replaced every two days, Fig. 4A) is listed as “growth stimulated by CCK-8 peptide”. For the same substance, in the assay on SK-PN-DW cells (serum-free media, replaced every two days, Fig. 4B), the “Ewing tumor cell growth with CCK-8, SK-PN-DW” value is “growth stimulated by CCK-8 peptide”.
